Reference: patent US20220354963A1, “EXTRACELLULAR VESICLE LINKED TO MOLECULES AND USES THEREOF” (Codiak BioSciences, Inc., priority 2019, published 2022)

Experiments:
Assay type in all cases: cell-based, human
STAT3 mRNA [1] = assay: STAT3 mRNA expression in IL-6 stimulated PANC-1 cells, branched DNA assay; settings: for STAT3 Inhibition 2 nM / STAT3 Inhibition 20 nM: 2 point DR data; for IC50: 5 point DR data, Lipofectamine2000 transfection, 48 hr, read-out: STAT3 PANC1 IC50 Prism
Experimental: (§1) The ASOs of the present disclosure were tested for their ability to reduce STAT3 mRNA expression in IL-6 stimulated PANC-1 cells. The PANC-1 cells were grown in cell culture media and seeded onto a 96 well plate at a density of 20,000 cells/well. ASOs were tested in two separate cohorts: 2 doses or 5 doses were given to the PANC-1 cells (See TABLE 3) at final concentrations of 20 nM and 2 nM, respectively. The assay used Lipofectamine2000 transfection and a 48 hr treatment cycle, with incubation at 37° C. and 5% C02. Analysis of the mRNA expression was then carried out using a branched DNA assay.

GAPDH [2] = assay: GAPDH inhibition in PANC-1 cells, same assay; settings: 2 point DR data
Experimental: as §1, with “The” for “The ASOs of the present disclosure were tested for their ability to reduce STAT3 mRNA expression in IL-6 stimulated PANC-1 cells. The”

STAT3 mRNA [3] = assay: STAT3 mRNA expression in IL-6 stimulated PANC-1 cells, branched DNA assay; settings: 5 point DR data
NRas mRNA = NRas mRNA expression in HEK-293 cells, branched DNA assay; set-up: NRAS max inhibition: unit not given here; settings: for IC20 / IC50 / IC80 / max. inhib. [%]:: HEK293 cells: dose-response; for NRAS max inhibition: Table 6
Experimental: as §1, with “NRas” for “STAT3”, “HEK-293” for “IL-6 stimulated PANC-1”, “HEK-293” for “PANC-1”, “TABLES 4, 5 and 6)” for “TABLE 3)”, “nM” for “nM,”

GAPDH [4] = assay: GAPDH inhibition in HEK-293 cells, same assay; set-up: GAPDH max inhibition: unit not given here; settings: for 2D GAPDH 20 nM inhibition: 2D (dual-dose); for GAPDH max inhibition: Table 6

Substance	STAT3 Inhibition 2 nM (STAT3 mRNA [1])	STAT3 Inhibition 20 nM (STAT3 mRNA [1])	IC50 (STAT3 mRNA [1])	GAPDH Inhibition 20 nM (GAPDH [2])	STAT3 Max inihibition 24 nM (STAT3 mRNA [3])	IC20 (NRas mRNA)	IC50 (NRas mRNA)	IC80 (NRas mRNA)	max. inhib. [%]: (NRas mRNA)	NRAS max inhibition (NRas mRNA)	2D GAPDH 20 nM inhibition (GAPDH [4])	GAPDH max inhibition (GAPDH [4])
102 (TTGGCTCGATCCAGGAGTGT; chemistry not given here) [compound 102]	82.7	89.5	0.473 nM	16.00	78.02	–	–	–	–	–	–	–
103 (CTCCTGTTGGCTCGATCCAG; chemistry not given here) [compound 103]	82.5	95.8	0.465 nM	10.00	89.93	–	–	–	–	–	–	–
105 (GGATAGTCCTCTAAGTGCAT; chemistry not given here) [compound 105]	79.4	91.6	1.47 nM	13.00	85.61	–	–	–	–	–	–	–
107 (TAGCGTGGCTAGATCCACAT; chemistry not given here) [compound 107]	79.0	87.7	0.037 nM	8.00	70.92	–	–	–	–	–	–	–
112 (GCGAAGATCCACACGGCCAT; chemistry not given here) [compound 112]	70.0	91.0	1.04 nM	−25.00	86.32	–	–	–	–	–	–	–
114 (GTTGATCGCAGCGAAGATCC; chemistry not given here) [compound 114]	66.4	87.0	0.814 nM	10.00	84.94	–	–	–	–	–	–	–
115 (CTGTTGATCGCAGCGAAGAT; chemistry not given here) [compound 115]	65.2	90.8	0.796 nM	3.00	78.99	–	–	–	–	–	–	–
185 (TCCGAGAGTGTTGCCTCGCA; chemistry not given here) [compound 185]	–	–	–	–	–	0.074 nM	0.349 nM	3.8 nM	85.4%	–	–	–
200 (GTTATGGTCAGTTAATAGAA; chemistry not given here) [compound 200]	–	–	–	–	–	0.041 nM	0.16 nM	0.666 nM	97.6%	98.68	33.52	38.68
201 (CACCAGGGAACATCTCGGGG; chemistry not given here) [compound 201]	–	–	–	–	–	0.024 nM	0.1 nM	0.455 nM	97.2%	98.45	16.86	45.30
206 (GAGCCTGGTTGGAAGCTGCA; chemistry not given here) [compound 206]	–	–	–	–	–	0.117 nM	0.471 nM	2.58 nM	90.9%	94.95	40.87	44.21
218 (GTTACGCTGTTTGGCCG; chemistry not given here) [compound 218]	–	–	–	–	–	0.139 nM	0.427 nM	1.94 nM	88.0%	90.00	28.11	25.71
223 (CGCTGTTTGGCCGGGCAGAA; chemistry not given here) [compound 223]	–	–	–	–	–	0.121 nM	0.581 nM	35.4 nM	80.8%	85.75	20.53	18.44
224 (GCTGTTTGGCCGGGCAGAAA; chemistry not given here) [compound 224]	–	–	–	–	–	0.639 nM	1.93 nM	–	72.0%	–	–	–
227 (GTTTGGCCGGGCAGAAACTC; chemistry not given here) [compound 227]	–	–	–	–	–	0.087 nM	0.413 nM	4.05 nM	86.3%	87.95	24.56	18.30
231 (GCCGGGCAGAAACTCCGCTG; chemistry not given here) [compound 231]	–	–	–	–	–	0.18 nM	0.538 nM	2.1 nM	90.4%	93.63	36.92	29.21
238 (CTCCCCGAGATGTTCCCTGG; chemistry not given here) [compound 238]	–	–	–	–	–	0.139 nM	0.646 nM	4.79 nM	88.9%	90.92	22.48	26.33
239 (AGGCTCCCCGAGATGTTCCC; chemistry not given here) [compound 239]	–	–	–	–	–	0.027 nM	0.159 nM	1.46 nM	90.4%	94.35	39.01	37.62
247 (AAACAGCGTAACCCCTTCTT; chemistry not given here) [compound 247]	–	–	–	–	–	0.122 nM	0.561 nM	4.14 nM	88.8%	90.09	25.39	25.35
248 (CAAACAGCGTAACCCCTTCT; chemistry not given here) [compound 248]	–	–	–	–	–	0.051 nM	0.288 nM	2.4 nM	91.0%	93.72	30.77	37.96
250 (GCCAAACAGCGTAACCCCTT; chemistry not given here) [compound 250]	–	–	–	–	–	0.173 nM	0.715 nM	5.68 nM	86.3%	88.02	27.30	33.44
252 (CCAAACAGCGTAACC; chemistry not given here) [compound 252]	–	–	–	–	–	0.072 nM	0.296 nM	1.95 nM	88.4%	91.49	13.40	29.98
253 (CGGCCAAACAGCGTAAC; chemistry not given here) [compound 253]	–	–	–	–	–	0.108 nM	0.461 nM	2.79 nM	90.4%	94.40	40.44	29.34
254 (GCCAAACAGCGTAAC; chemistry not given here) [compound 254]	–	–	–	–	–	0.067 nM	0.336 nM	2.11 nM	93.4%	96.11	20.10	32.96
257 (TCTGCCCGGCCAAACAGCGT; chemistry not given here) [compound 257]	–	–	–	–	–	0.069 nM	0.364 nM	3.67 nM	87.3%	91.79	21.09	30.55
264 (GCGGAGTTTCTGCCCGGCCA; chemistry not given here) [compound 264]	–	–	–	–	–	0.039 nM	0.229 nM	2.43 nM	88.5%	91.73	10.43	26.13
SEQ ID NO: 232: NRas ASO, starting nucleotide 400, length 20 (CCGGGCAGAAACTCCGCTGA; chemistry not given here)	–	–	–	–	–	0.048 nM	0.245 nM	1.59 nM	93.2%	95.91	36.10	53.16
SEQ ID NO: 236: NRas ASO, starting nucleotide 421, length 20 (CCCCGAGATGTTCCCTGGTG; chemistry not given here)	–	–	–	–	–	0.053 nM	0.349 nM	4.78 nM	87.3%	91.51	34.05	40.06
